# According to patent US20220362153A1, “COMPOSITIONS AND METHODS FOR PULMONARY SURFACTANT-BIOMIMETIC NANOPARTICLES” (priority 2019, published 2022):
# Test system: NC09 H1N1 virus
# Format: in vivo
# Conditions: unimmunized mice, 20 mg/kg/day
smiles,measurement,value
CCOC(=O)C1=C[C@@H](OC(CC)CC)[C@H](NC(C)=O)[C@@H](N)C1 [oseltamivir],control of NC09 viral infection,but not NC09
